Experimental data reported in article PMC13534584, “ATP13A4 gates extracellular polyamine levels to control excitatory synaptogenesis” (Nature Communications, 2026).
Changes are numbered by the printed parent chain.

How the values were obtained:
Assay in all cases: ADP-Glo Max ATPase assay, dose-response
Format in all cases: biochemical
Conditions in all cases: 5 mM ATP, 11 mM MgCl2, 100 mM KCl, MOPS-KOH pH 7, 37 °C, 0.001% DDM
[1] = target: T1, hATP13A4 (Homo sapiens, UniProt Q4VNC1, A356V)
T1 construct: gene ATP13A4; solubilised in DDM
T1 sequence (Q4VNC1 1-1196 A356V): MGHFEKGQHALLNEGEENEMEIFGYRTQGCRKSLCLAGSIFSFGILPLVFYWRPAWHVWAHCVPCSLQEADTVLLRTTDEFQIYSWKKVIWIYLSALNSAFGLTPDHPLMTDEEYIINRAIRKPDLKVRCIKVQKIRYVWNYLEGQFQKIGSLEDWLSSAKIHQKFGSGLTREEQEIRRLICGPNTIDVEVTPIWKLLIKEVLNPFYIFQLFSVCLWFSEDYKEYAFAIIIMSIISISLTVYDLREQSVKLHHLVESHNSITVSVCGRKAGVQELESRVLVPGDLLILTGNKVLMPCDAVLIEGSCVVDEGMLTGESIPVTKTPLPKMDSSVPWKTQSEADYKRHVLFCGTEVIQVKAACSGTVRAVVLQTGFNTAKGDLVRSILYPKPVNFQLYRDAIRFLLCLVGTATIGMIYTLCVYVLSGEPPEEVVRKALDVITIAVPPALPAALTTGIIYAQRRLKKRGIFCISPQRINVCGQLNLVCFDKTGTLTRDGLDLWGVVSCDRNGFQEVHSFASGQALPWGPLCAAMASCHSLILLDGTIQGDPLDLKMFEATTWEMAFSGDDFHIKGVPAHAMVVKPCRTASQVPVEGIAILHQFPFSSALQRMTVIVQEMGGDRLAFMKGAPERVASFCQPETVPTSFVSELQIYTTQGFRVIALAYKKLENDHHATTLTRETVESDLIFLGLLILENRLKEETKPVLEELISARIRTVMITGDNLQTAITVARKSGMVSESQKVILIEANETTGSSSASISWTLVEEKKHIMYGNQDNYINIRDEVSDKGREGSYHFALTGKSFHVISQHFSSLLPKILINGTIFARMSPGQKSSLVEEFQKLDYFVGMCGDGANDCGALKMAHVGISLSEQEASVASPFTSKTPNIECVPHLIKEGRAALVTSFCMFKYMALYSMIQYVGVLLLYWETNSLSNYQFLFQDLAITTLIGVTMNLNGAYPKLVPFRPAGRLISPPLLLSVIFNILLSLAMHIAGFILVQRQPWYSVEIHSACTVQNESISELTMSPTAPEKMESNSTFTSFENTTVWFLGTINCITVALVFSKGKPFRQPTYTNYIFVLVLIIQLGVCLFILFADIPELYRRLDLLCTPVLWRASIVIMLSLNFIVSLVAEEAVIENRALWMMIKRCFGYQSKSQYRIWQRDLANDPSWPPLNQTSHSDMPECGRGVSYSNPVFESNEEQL

[2] = target: T2, hATP13A4 (Homo sapiens, UniProt Q4VNC1)
T2 construct: gene ATP13A4; solubilised in DDM
T2 sequence (Q4VNC1 1-1196): T1 sequence (Q4VNC1 1-1196 A356V) with V356A

[3] = target: T3, hATP13A4 (Homo sapiens, UniProt Q4VNC1, E276K)
T3 construct: gene ATP13A4; solubilised in DDM
T3 sequence (Q4VNC1 1-1196 E276K): T1 sequence (Q4VNC1 1-1196 A356V) with E276K, V356A

Row | SMILES | spermidine-dependent ATPase activity [1] | ATPase stimulation [2] | spermidine-dependent ATPase activity [3]
1 | NCCCCNCCCN [SPD, spermidine] | spermidine-dependent ATPase activity of purified, solubilized ATP13A4 (WT and disease-associated variants p.E276K, p.A356V | each stimulated ATPase activity of purified wild-type (WT) hATP13A4 in a concentration-dependent manner | p.E276K reduces spermidine-stimulated ATPase activity to a similar extent as p.A356V and p.E646D
2 | NCCCNCCCCNCCCN [SPM, spermine] |  | ATP13A4 exhibits the highest apparent affinity for spermine and spermidine | 
3 | NCCCCCN [cadaverine] |  | Putrescine, spermidine, spermine, cadaverine, and acetylated polyamine derivatives each stimulated ATPase activity | 
